Laboratory results taken from patent US20240150325A1, “NOVEL COMPOUND AS PROTEIN KINASE INHIBITORS” (LG CHEM, LTD., priority 2021, published 2024).

Key:
RON = RON (Homo sapiens, UniProt Q04912); assay: Evaluation of inhibitory activity to RON; type: biochemical
From the text: (§1) Experimental Example 1. Evaluation of Inhibitory Activity to RON and MET

MET = MET (Homo sapiens, UniProt P08581); assay: Evaluation of inhibitory activity to MET; type: biochemical
From the text: as §1

MET, sequence (P08581 25-1390): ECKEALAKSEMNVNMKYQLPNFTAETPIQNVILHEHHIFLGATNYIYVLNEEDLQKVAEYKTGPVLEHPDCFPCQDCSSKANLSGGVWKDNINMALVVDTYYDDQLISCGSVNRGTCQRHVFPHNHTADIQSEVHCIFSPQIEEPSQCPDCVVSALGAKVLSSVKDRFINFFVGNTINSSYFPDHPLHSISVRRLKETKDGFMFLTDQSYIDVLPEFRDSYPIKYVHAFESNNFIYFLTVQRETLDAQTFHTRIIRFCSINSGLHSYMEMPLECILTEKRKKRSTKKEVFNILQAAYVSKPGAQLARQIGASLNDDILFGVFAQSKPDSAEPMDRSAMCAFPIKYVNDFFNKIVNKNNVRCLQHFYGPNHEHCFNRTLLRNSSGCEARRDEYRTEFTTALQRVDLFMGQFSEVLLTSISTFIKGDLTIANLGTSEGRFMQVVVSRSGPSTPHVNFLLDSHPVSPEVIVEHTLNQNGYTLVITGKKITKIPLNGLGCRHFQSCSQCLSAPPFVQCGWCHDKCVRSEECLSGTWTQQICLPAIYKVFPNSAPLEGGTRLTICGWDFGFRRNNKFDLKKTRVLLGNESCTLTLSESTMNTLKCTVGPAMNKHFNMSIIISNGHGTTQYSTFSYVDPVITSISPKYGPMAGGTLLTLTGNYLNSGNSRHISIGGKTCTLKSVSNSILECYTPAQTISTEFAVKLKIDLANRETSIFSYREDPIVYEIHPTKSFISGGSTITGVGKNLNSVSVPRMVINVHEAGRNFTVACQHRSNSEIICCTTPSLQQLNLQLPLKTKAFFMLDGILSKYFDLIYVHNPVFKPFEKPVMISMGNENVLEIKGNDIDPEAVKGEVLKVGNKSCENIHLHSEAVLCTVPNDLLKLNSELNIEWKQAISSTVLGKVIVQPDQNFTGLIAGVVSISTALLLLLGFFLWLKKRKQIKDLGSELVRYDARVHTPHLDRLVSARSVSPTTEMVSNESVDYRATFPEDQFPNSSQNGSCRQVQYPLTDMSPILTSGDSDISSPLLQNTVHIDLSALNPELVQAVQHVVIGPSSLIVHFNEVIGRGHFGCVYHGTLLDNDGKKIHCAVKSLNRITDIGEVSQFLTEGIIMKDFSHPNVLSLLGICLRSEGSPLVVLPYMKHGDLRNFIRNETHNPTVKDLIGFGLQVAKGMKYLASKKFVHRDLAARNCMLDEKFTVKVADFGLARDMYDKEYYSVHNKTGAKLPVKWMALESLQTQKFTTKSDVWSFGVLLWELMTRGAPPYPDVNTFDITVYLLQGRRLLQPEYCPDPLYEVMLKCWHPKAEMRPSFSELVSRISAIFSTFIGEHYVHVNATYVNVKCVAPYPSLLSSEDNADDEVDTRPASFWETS
RON, sequence (Q04912 25-1400): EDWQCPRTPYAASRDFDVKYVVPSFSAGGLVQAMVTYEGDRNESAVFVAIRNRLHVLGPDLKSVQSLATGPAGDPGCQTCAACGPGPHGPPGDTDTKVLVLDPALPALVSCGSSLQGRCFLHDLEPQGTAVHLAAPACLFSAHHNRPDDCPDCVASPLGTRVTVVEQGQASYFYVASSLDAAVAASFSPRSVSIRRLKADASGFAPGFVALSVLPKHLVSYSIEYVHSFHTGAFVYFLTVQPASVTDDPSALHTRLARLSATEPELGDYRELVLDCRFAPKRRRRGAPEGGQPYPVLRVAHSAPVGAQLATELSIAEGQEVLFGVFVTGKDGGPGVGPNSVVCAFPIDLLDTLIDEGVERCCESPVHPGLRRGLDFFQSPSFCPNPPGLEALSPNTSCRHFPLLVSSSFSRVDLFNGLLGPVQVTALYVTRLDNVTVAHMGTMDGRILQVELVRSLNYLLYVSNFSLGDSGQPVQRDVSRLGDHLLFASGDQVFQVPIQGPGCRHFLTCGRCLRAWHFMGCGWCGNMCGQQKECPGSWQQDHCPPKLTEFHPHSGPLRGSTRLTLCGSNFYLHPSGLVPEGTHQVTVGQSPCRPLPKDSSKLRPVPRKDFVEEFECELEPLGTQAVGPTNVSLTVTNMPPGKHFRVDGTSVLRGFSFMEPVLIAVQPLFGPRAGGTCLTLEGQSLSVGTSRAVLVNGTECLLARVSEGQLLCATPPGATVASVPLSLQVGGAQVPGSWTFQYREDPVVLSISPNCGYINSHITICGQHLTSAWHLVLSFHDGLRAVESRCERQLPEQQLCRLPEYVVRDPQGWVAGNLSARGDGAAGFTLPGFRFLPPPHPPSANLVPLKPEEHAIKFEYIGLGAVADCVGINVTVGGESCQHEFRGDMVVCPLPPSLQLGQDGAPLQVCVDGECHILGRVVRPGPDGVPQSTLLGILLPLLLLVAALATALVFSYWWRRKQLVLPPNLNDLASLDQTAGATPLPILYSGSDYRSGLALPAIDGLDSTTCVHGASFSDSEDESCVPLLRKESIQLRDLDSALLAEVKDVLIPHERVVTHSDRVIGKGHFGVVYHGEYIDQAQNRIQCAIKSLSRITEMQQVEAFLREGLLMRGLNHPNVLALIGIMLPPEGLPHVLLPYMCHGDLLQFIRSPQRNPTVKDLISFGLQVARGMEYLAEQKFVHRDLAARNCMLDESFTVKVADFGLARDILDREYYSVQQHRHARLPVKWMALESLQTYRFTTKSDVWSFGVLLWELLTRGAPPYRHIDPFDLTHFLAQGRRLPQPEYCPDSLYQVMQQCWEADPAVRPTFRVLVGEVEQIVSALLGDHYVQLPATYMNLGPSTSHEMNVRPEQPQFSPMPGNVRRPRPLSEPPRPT

SMILES | IC50 (RON) [nM] | IC50 (MET) [nM]
Cn1cc(-c2cc(C(=O)Nc3ccc(-c4ccc(O)c(-c5ccnc(N)n5)c4)c(F)c3)c(=O)n(-c3ccc(F)cc3)c2)cn1 [Example 7, N-(3′-(2-aminopyrimidin-4-yl)-2-fluoro-4′-hydroxy-[1,1′-biphenyl]-4-yl)-1-(4-fluorophenyl)-5-(1-methyl-1H-pyrazol-4-yl)-2-oxo-1,2-dihydropyridin-3-carboxamide] | 942 | 2230
Cc1ccc(C(=O)Nc2ccc(Nc3ccc(O)c(-c4ccnc(N)n4)c3)c(F)c2)c(=O)n1-c1ccc(F)cc1 [Example 30, N-(4-((3-(2-aminopyrimidin-4-yl)-4-hydroxyphenyl)amino)-3-fluorophenyl)-1-(4-fluorophenyl)-6-methyl-2-oxo-1,2-dihydropyridin-3-carboxamide] | 248 | 49
Cc1c(C(=O)Nc2ccc(Oc3ccc(O)c(-c4ccnc(N)n4)c3)c(F)c2)c(=O)n(-c2ccccc2)n1C [Example 43, N-(4-(3-(2-aminopyrimidin-4-yl)-4-hydroxyphenoxy)-3-fluorophenyl)-1,5-dimethyl-3-oxo-2-phenyl-2,3-dihydro-1H-pyrazol-4-carboxamide] | 279 | 48
CC(=O)c1cc(Oc2ccc(NC(=O)c3ccc(C)n(-c4ccc(F)cc4)c3=O)cc2F)ccc1O [Example 37, N-(4-(3-acetyl-4-hydroxyphenoxy)-3-fluorophenyl)-1-(4-fluorophenyl)-6-methyl-2-oxo-1,2-dihydropyridin-3-carboxamide] |  | 954
C/C(=N\O)c1cc(Oc2ccc(NC(=O)c3ccc(C)n(-c4ccc(F)cc4)c3=O)cc2F)ccc1O [Example 38, (E)-N-(3-fluoro-4-(4-hydroxy-3-(1-(hydroxyimino)ethyl)phenoxy)phenyl)-1-(4-fluorophenyl)-6-methyl-2-oxo-1,2-dihydropyridin-3-carboxamide] |  | 354

Second part, the molecule after the results:

IC50 (RON) [nM] | IC50 (MET) [nM] | SMILES
137 | 46 | Nc1nccc(-c2cc(Oc3ccc(NC(=O)c4cc(Br)cn(-c5ccc(F)cc5)c4=O)cc3F)ccc2O)n1 [Example 44, N-(4-(3-(2-aminopyrimidin-4-yl)-4-hydroxyphenoxy)-3-fluorophenyl)-5-bromo-1-(4-fluorophenyl)-2-oxo-1,2-dihydropyridin-3-carboxamide]
1330 | 2940 | CCOc1ccn(-c2ccc(F)cc2)c(=O)c1C(=O)Nc1ccc(-c2ccc(O)c(-c3ccnc(N)n3)c2)c(C)c1 [Example 13, N-(3′-(2-aminopyrimidin-4-yl)-4′-hydroxy-2-methyl-[1,1′-biphenyl]-4-yl)-4-ethoxy-1-(4-fluorophenyl)-2-oxo-1,2-dihydropyridin-3-carboxamide]
4480 | 160 | CCOc1ccn(-c2ccc(F)cc2)c(=O)c1C(=O)Nc1ccc(Oc2ccc(O)c(-c3cc[nH]n3)c2)c(F)c1 [Example 57, 4-Ethoxy-N-(3-fluoro-4-(4-hydroxy-3-(1H-pyrazol-3-yl)phenoxy)phenyl)-1-(4-fluorophenyl)-2-oxo-1,2-dihydropyridin-3-carboxamide]
86 | 27 | CCOc1ccn(-c2ccc(F)cc2)c(=O)c1C(=O)Nc1ccc(Oc2ccc(O)c(-c3ccnc(N)n3)c2)c(F)c1 [Example 39, N-(4-(3-(2-aminopyrimidin-4-yl)-4-hydroxyphenoxy)-3-fluorophenyl)-4-ethoxy-1-(4-fluorophenyl)-2-oxo-1,2-dihydropyridin-3-carboxamide]
 | 4 | Cc1ccc(C(=O)Nc2ccc(Oc3ccc(O)c(-c4ccnc(N)n4)c3)c(F)c2)c(=O)n1-c1ccc(F)cc1 [Example 40, N-(4-(3-(2-aminopyrimidin-4-yl)-4-hydroxyphenoxy)-3-fluorophenyl)-1-(4-fluorophenyl)-6-methyl-2-oxo-1,2-dihydropyridin-3-carboxamide]
355 | 53 | COc1ccn(-c2ccc(F)cc2)c(=O)c1C(=O)Nc1ccc(Oc2ccc(O)c(-c3ccnc(N)n3)c2)c(F)c1 [Example 42, N-(4-(3-(2-aminopyrimidin-4-yl)-4-hydroxyphenoxy)-3-fluorophenyl)-1-(4-fluorophenyl)-4-methoxy-2-oxo-1,2-dihydropyridin-3-carboxamide]
